pKd: −log10 of the molar value.
Biological target: T1, EcDsbA (DsbA, oxidized) (Escherichia coli, UniProt P0AEG4)
T1 construct: 21 kDa oxidized EcDsbA
Assay: X-ray crystal structure ([…] Å, soaking), intermolecular NOEs/NMR2, KD from HSQC chemical shift perturbation titration
Format: binding

T1 sequence (P0AEG4 20-208): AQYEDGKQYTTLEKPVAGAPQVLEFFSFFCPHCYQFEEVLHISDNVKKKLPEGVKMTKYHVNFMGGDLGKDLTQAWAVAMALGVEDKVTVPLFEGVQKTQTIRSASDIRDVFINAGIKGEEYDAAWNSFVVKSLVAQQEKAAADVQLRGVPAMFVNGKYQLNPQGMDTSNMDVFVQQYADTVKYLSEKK

Compound: O=C(O)c1sc(CCCc2ccccc2)nc1-c1ccccc1 [compound 1, phenylthiazole 1]
- pKd: ~3.05
